Here are results for 44 compounds from US8981094B2, “Piperidine/piperazine derivatives” (Janssen Pharmaceutica N.V., priority 2007, dated 2015).

The target of one data set is T1, human DGAT1 (Homo sapiens, UniProt O75907).
T1 construct: FLAG (N); made in house; host or cells: SF9 insect cells (pFastBac baculovirus); total cell membranes
T1 sequence (O75907 1-488): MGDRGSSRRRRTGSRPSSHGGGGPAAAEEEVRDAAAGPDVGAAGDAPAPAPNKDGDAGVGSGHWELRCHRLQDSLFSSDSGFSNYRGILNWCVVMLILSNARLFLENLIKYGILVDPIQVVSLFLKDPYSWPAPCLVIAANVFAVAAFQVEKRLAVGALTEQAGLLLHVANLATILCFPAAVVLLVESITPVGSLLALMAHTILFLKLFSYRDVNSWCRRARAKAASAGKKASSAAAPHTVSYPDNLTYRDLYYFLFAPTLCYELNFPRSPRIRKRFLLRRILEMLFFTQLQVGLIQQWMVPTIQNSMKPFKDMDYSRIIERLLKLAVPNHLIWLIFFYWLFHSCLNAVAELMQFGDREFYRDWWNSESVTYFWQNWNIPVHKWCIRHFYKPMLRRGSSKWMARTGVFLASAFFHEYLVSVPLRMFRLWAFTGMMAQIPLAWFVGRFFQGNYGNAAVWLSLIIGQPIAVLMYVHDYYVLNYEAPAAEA
Nature of the data set: Inhibition of DGAT1 activity, FlashPlate assay with DGAT1 membrane preparations and substrate micelles. To be noted: pIC50 = -logIC50, IC50 values expressed in M. The data set is classed as biochemical. An outline of the steps:
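FLAG-tagged human DGAT1 membranes (expressed in Sf9 cells) were incubated 120 min at 37° C. in 50 mM Tris-HCl pH 7.4 with 150 mM MgCl2, 1 mM EDTA, 0.2% BSA, 50 μM DAG micelles (PC/PS) and 8.4 μM [^3H]-oleoylCoA. The reaction was stopped with N-ethylmaleimide and read as FlashPlate radioluminescence. Responses were normalized to enzyme/no-enzyme controls to fit dose-response curves.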

`C=CCN(CCC(=O)Nc1ccc(N2CCN(C(=O)Nc3c(Cl)cccc3Cl)CC2)cc1)c1ccccc1Cl` [Compound 7] showed a melting point of 232 to 233 °C. This compound also had a half-maximal inhibitory concentration (IC50) against human DGAT1 of 8.51 nM.

In turn, `COc1ccccc1CNC(=O)N1CCN(c2ccc(NC(=O)CCCc3ccccc3)cc2)CC1` [Compound 71] registered a melting point of 183.1 °C. Besides, at human DGAT1, the IC50 was 1070 nM.

`COc1cc(Cl)c(NC(=O)N2CCN(c3ccc(NC(=O)CCCc4ccccc4)cc3)CC2)c(OC)c1` [Compound 188] yielded a melting point of 208 to 210 °C. Besides, the midpoint of inhibition on human DGAT1, the IC50, lay at 74.1 nM.

Turning to `O=C(CCCc1ccccc1)Nc1ccc(N2CCN(C(=O)Nc3c(Cl)cccc3Cl)CC2)cc1` [Compound 58], the melting point is 114 to 124 °C. Besides, at human DGAT1, 5.37 nM corresponded to half-maximal inhibition (IC50).

`O=C(CCCc1ccccc1)Nc1ccc(N2CCN(C(=O)Nc3c(Cl)cc(CO)cc3Cl)CC2)cc1` [Compound 28] had a melting point of 196.1 °C. The midpoint of inhibition on human DGAT1, the IC50, lay at 1.95 nM.

The compound `O=C(CC1CCCCC1)Nc1ccc(N2CCN(C(=O)Nc3c(Cl)cccc3Cl)CC2)cc1` [Compound 1] yielded a melting point of 285.3 °C. On human DGAT1, this compound gave a half-inhibitory concentration (IC50) of 4.47 nM.

On to `O=C(CCCc1ccccc1)Nc1ccc(N2CCN(C(=O)Nc3cc(C(F)(F)F)ccc3Cl)CC2)cc1` [Compound 81], for which the melting point is 170.3 °C. Moreover, the midpoint of inhibition on human DGAT1, the IC50, lay at 3310 nM.

Consider `O=C(CNC1CCCCC1)Nc1ccc(N2CCN(C(=O)Nc3c(Cl)cccc3Cl)CC2)cc1` [Compound 180], for which the melting point is 185 to 187 °C. Besides, the IC50 against human DGAT1 is 407 nM.

Compound `O=C(CCCc1ccccc1)Nc1ccc(N2CCN(C(=O)Nc3ccc(F)cc3F)CC2)cc1` [Compound 73] had a melting point of 141.2 °C. This compound also showed an IC50 against human DGAT1 of 457 nM.

Consider `O=C(CN1CCCC1)Nc1ccc(N2CCN(C(=O)Nc3c(Cl)cccc3Cl)CC2)cc1` [Compound 201], for which the melting point was 214 to 216 °C. On human DGAT1, this compound showed an IC50 of 1950 nM.

The compound `CN(C(=O)CCCc1ccccc1)c1ccc(N2CCN(C(=O)Nc3c(Cl)cccc3Cl)CC2)cc1` [Compound 42] had a melting point of 175.2 °C. This compound had an IC50 on human DGAT1 of 6920 nM.

Consider `C=CCN(CC(=O)Nc1ccc(N2CCN(C(=O)Nc3c(Cl)cc(OC)cc3OC)CC2)cc1)c1ccc(C)cc1C` [Compound 186], for which the melting point fell in the range of 181 to 182 °C. The same compound showed an IC50 against human DGAT1 of 13.8 nM.

Compound `O=C(CCc1cccnc1)Nc1ccc(N2CCN(C(=O)Nc3c(Cl)cccc3Cl)CC2)cc1` [Compound 198] displayed a melting point of 260 to 261 °C. For the same compound, on human DGAT1, the IC50 was 229 nM.

As for `COC(=O)c1ccccc1NC(=O)N1CCN(c2ccc(NC(=O)CCCc3ccccc3)cc2)CC1` [Compound 92], the melting point was found to be 165.4 °C. Moreover, the midpoint of inhibition on human DGAT1, the IC50, lay at 7410 nM.

Regarding `CCCc1ccccc1NC(=O)N1CCN(c2ccc(NC(=O)CCCc3ccccc3)cc2)CC1` [Compound 77], the melting point was 200.2 °C. Besides, the IC50 against human DGAT1 was 1660 nM.

In turn, `Cc1ccc(NCCC(=O)Nc2ccc(N3CCN(C(=O)Nc4c(Cl)cc(O)cc4Cl)CC3)cc2)c(C)c1` [Compound 280] yielded a melting point of 227 to 228 °C. The IC50 on human DGAT1 was 6.76 nM.

Turning to `O=C(NCc1cccc(N2CCCC2)c1)c1ccc(N2CCN(C(=O)Cc3c(Cl)cccc3Cl)CC2)cc1` [Compound 234], the melting point is 251.1 °C. At human DGAT1, this compound had an IC50 of 50.1 nM.

`O=C(NCc1ccncc1)c1ccc(N2CCN(C(=O)Cc3c(Cl)cccc3Cl)CC2)cc1` [Compound 251] returned a melting point of 239.51 °C. On human DGAT1, this compound showed a half-inhibitory concentration (IC50) of 191 nM.

In turn, `O=C(NCc1ccc(-c2ccccn2)cc1)c1ccc(N2CCN(C(=O)Nc3c(Cl)cc(CN4CCCC4)cc3Cl)CC2)cc1` [Compound 236] returned a melting point of 217.37 °C. In addition, the IC50 against human DGAT1 is 60.3 nM.

`C=CCN(CC(=O)Nc1ccc(N2CCN(C(=O)Nc3c(Cl)cccc3Cl)CC2)cc1)Cc1ccc(F)cc1` [Compound 51] registered a melting point of 177.8 °C. The compound also gave an IC50 against human DGAT1 of 18.2 nM.

With `O=C(CCC(O)c1ccccc1)Nc1ccc(N2CCN(C(=O)Cc3c(Cl)cccc3Cl)CC2)cc1` (stereo not shown) [Compound 333], the melting point is 200.57 °C. The compound further showed a concentration for half-maximal inhibition (IC50) against human DGAT1 of 355 nM.

As to `Cc1ccc(NCC(=O)Nc2ccc(N3CCN(C(=O)Nc4c(Cl)cc(O)cc4Cl)CC3)cc2)c(C)c1` [Compound 185], the melting point fell in the range of 202 to 203 °C. The IC50 at human DGAT1 was 3.72 nM.

Take `O=C(CCCc1ccccc1)Nc1ccc(N2CCN(C(=O)Nc3c(F)c(F)c(F)c(F)c3F)CC2)cc1` [Compound 87]: the melting point worked out at 181.2 °C. This compound also had an IC50 at human DGAT1 of 3310 nM.

`O=C(CCCc1ccccc1)Nc1ccc(C2CCN(C(=O)Nc3c(Cl)cc(CO)cc3Cl)CC2)cc1` [Compound 276] showed a melting point of 198 to 199 °C. In addition, the concentration for half-maximal inhibition (IC50) at human DGAT1 is 4.27 nM.

In the case of `CC1CCCN1CC(=O)Nc1ccc(N2CCN(C(=O)Nc3c(Cl)cccc3Cl)CC2)cc1` (stereo not shown) [Compound 179], the melting point lay within 220 to 222 °C. Also, at human DGAT1, the IC50 is 1070 nM.

As for `O=C(CNc1ccccc1)Nc1ccc(N2CCN(C(=O)Nc3c(Cl)cccc3Cl)CC2)cc1` [Compound 21], the melting point fell in the range of 244 to 246 °C. The compound further gave an IC50 against human DGAT1 of 72.4 nM.

`O=C(CCN1CCCCC1)Nc1ccc(N2CCN(C(=O)Nc3c(Cl)cccc3Cl)CC2)cc1` [Compound 138] registered a melting point of 241.1 °C. This compound also showed a 50% inhibitory concentration (IC50) on human DGAT1 of 1320 nM.

On to `CC(C)c1ccccc1NC(=O)N1CCN(c2ccc(NC(=O)CCCc3ccccc3)cc2)CC1` [Compound 90], for which the melting point came out at 214.2 °C. This compound showed an IC50 at human DGAT1 of 589 nM.

`COc1ccc(CNCC(=O)Nc2ccc(N3CCN(C(=O)Nc4c(Cl)cccc4Cl)CC3)cc2)cc1` [Compound 177]: the melting point lay within 128 to 129 °C. Besides, at human DGAT1, 245 nM corresponded to half-maximal inhibition (IC50).

`O=C(CNc1ccccc1Cl)Nc1ccc(N2CCN(C(=O)Nc3c(Cl)cccc3Cl)CC2)cc1` [Compound 4] returned a melting point of 247 to 249 °C. Moreover, half-maximal inhibition against human DGAT1 (IC50) required 2.69 nM.

As to `CC(C)(C)OC(=O)NC1(C(=O)Nc2ccc(N3CCN(C(=O)Nc4c(Cl)cccc4Cl)CC3)cc2)CCCC1` [Compound 5], the melting point was found to be 242.6 °C. Also, at human DGAT1, the IC50 was 151 nM.

`O=C(CCc1ccccn1)Nc1ccc(N2CCN(C(=O)Nc3c(Cl)cccc3Cl)CC2)cc1` [Compound 9]: the melting point was 187 to 188 °C. Moreover, it took 550 nM to reach half-maximal inhibition against human DGAT1 (IC50).

`CN(CC(=O)Nc1ccc(N2CCN(C(=O)Nc3c(Cl)cccc3Cl)CC2)cc1)C(=O)Cc1ccccc1` [Compound 171]: the melting point lay within 253 to 255 °C. Also, 28.2 nM corresponded to half-maximal inhibition at human DGAT1 (IC50).

With `O=C(CCCc1ccccc1)Nc1ccc(N2CCN(C(=O)Nc3c(Cl)c(Cl)cc(Cl)c3Cl)CC2)cc1` [Compound 88], the melting point is 225.1 °C. Moreover, the IC50 against human DGAT1 was 479 nM.

`Cc1cc(C)cc(N2CCN(CC(=O)Nc3ccc(N4CCN(C(=O)Nc5c(Cl)cccc5Cl)CC4)cc3)CC2)c1` [Compound 41] had a melting point of 186.1 °C. The compound also gave a half-maximal inhibitory concentration (IC50) against human DGAT1 of 77.6 nM.

In turn, `O=C(CNc1ccc(F)cc1)Nc1ccc(N2CCN(C(=O)Nc3c(Cl)cccc3Cl)CC2)cc1` [Compound 36] returned a melting point of 254.2 °C. Further, the IC50 against human DGAT1 is 87.1 nM.

`Cc1cc(C)c(NC(=O)N2CCN(c3ccc(NC(=O)CCCc4ccccc4)cc3)CC2)c(Cl)c1` [Compound 64] returned a melting point of 210.6 °C. In addition, the half-inhibitory concentration (IC50) on human DGAT1 was 7.08 nM.

The compound `COc1cc(CNC(=O)c2ccc(N3CCN(C(=O)Cc4c(Cl)cccc4Cl)CC3)cc2)cc(OC)c1` [Compound 225] showed a melting point of 212.29 °C. Also, the IC50 at human DGAT1 is 9.55 nM.

In turn, `COc1ccc(CC(=O)Nc2ccc(N3CCN(C(=O)Nc4c(Cl)cc(O)cc4Cl)CC3)cc2)cc1` [Compound 16] registered a melting point of 183 to 184 °C. The compound also gave a half-maximal inhibitory concentration (IC50) at human DGAT1 of 4.68 nM.

With `O=C(CCCc1ccccc1)Nc1ccc(N2CCN(C(=O)Nc3c(F)cc(Br)cc3Br)CC2)cc1` [Compound 63], the melting point came out at 218.6 °C. At human DGAT1, the half-inhibitory concentration (IC50) is 30.9 nM.

In turn, `O=C(CCCc1ccccc1)Nc1ccc(N2CCN(C(=O)Nc3ccccc3F)CC2)cc1` [Compound 94] displayed a melting point of 177.3 °C. Further, the IC50 on human DGAT1 was 295 nM.

As for `O=C(NCc1cccc2ccccc12)c1ccc(N2CCN(C(=O)Cc3c(Cl)cccc3Cl)CC2)cc1` [Compound 229], the melting point stood at 242.15 °C. Further, the IC50 against human DGAT1 is 30.9 nM.

As for `CN(C)CCC(=O)Nc1ccc(N2CCN(C(=O)Nc3c(Cl)cccc3Cl)CC2)cc1` [Compound 196], the melting point was 194 to 196 °C. For the same compound, the midpoint of inhibition against human DGAT1, the IC50, lay at 6760 nM.

The compound `O=C(CCCc1ccccc1)Nc1ccc(N2CCN(C(=O)Nc3ccccc3)CC2)cc1` [Compound 339] came in with a melting point of 219.91 °C. In addition, the IC50 against human DGAT1 is 3090 nM.

In general, IC50 refers to the concentration at which inhibition is half-maximal. Lower therefore signals inhibition by little substance. Broadly, the melting point is the temperature of the solid-liquid transition.
